Reference: ChEMBL document CHEMBL4825738, “EGFR-targeted prodrug activation using bioorthogonal alkene-azide click-and-release chemistry” (Bioorg Med Chem, 2021)
pIC50: −log10 of the molar value.

Columns and labels:
[1] = test system: B16-F10-luc2; assay: Anti tumour activity in C57BL/6 mouse implanted with B16-F10-Luc2 murine cells assessed as median survival time at 5.9 mg/kg, iv administered for 6 hrs followed by antibody conjugate treatment; type: functional
[2] = test system: B16-F10-luc2; assay: Cytotoxicity against mouse B16-F10-Luc2 cells measured after 72 hrs by resazurin assay; type: cell-based; conditions: B16-F10-luc2, 72 h
[3] = test system: B16-F10-luc2; assay: Cytotoxicity against mouse B16-F10-Luc2 cells expressing human EGFR measured after 72 hrs by resazurin assay; type: cell-based; conditions: B16-F10-luc2, 72 h
[4] = test system: B16-F10-luc2; assay: Cytotoxicity against mouse B16-F10-Luc2 cells expressing human EGFR measured after 72 hrs in presence of AB-TCO4 conjugates by resazurin assay; type: functional, cell-based; conditions: B16-F10-luc2, 72 h
[5] = test system: B16-F10-luc2; assay: Cytotoxicity against mouse B16-F10-Luc2 cells in the measured after 72 hrs in presence of AB-TCO3 conjugate by resazurin assay; type: functional, cell-based; conditions: B16-F10-luc2, 72 h
[6] = test system: B16-F10-luc2; assay: Cytotoxicity against mouse B16-F10-Luc2 cells measured after 72 hrs in presence of AB-TCO2 conjugate by resazurin assay; type: functional, cell-based; conditions: B16-F10-luc2, 72 h
[7] = test system: B16-F10-luc2; assay: Cytotoxicity against mouse B16-F10-Luc2 cells expressing human EGFR measured after 72 hrs in presence of AB-TCO3 conjugates by resazurin assay; type: functional, cell-based; conditions: B16-F10-luc2, 72 h
[8] = test system: B16-F10-luc2; assay: Cytotoxicity against mouse B16-F10-Luc2 cells expressing human EGFR measured after 72 hrs in presence of AB-TCO2 conjugates by resazurin assay; type: functional, cell-based; conditions: B16-F10-luc2, 72 h
[9] = test system: B16-F10-luc2; assay: Cytotoxicity against mouse B16-F10-Luc2 cells expressing EGFR measured after 72 hrs in absence of cetuximab by resazurin assay; type: functional, cell-based; conditions: B16-F10-luc2, 72 h
[10] = test system: B16-F10-luc2; assay: Anti tumour activity in C57BL/6 mouse implanted with B16-F10-Luc2 murine cells assessed as median survival time at 4.5 mg/kg, ip administered for 24 hrs followed by antibody conjugate treatment; type: functional
[11] = test system: B16-F10-luc2; assay: Cytotoxicity against mouse B16-F10-Luc2 cells expressing EGFR measured after 72 hrs in presence of 3.3 uM cetuximab by resazurin assay; type: functional, cell-based; conditions: B16-F10-luc2, 72 h

Structure (SMILES)	MST [1]	pIC50 [2]	pIC50 [3]	pIC50 [4]	pIC50 [5]	pIC50 [6]	pIC50 [7]	pIC50 [8]	pIC50 [9]	MST [10]	pIC50 [11]
COc1cccc2c1C(=O)c1c(O)c3c(c(O)c1C2=O)C[C@@](O)(C(=O)CO)C[C@@H]3O[C@H]1C[C@H](NC(=O)OCc2ccc(N=[N+]=[N-])cc2)[C@H](O)[C@H](C)O1	26 days	5.35	5.77	5.68	5.46	5.29	6.92	6.11	–	–	–
COc1cccc2c1C(=O)c1c(O)c3c(c(O)c1C2=O)C[C@@](O)(C(=O)CO)C[C@@H]3O[C@H]1C[C@H](N)[C@H](O)[C@H](C)O1 [DOXORUBICIN]	–	6.96	7.40	–	–	–	–	–	7.40	39 days	7.05
